Source: the supplement of paper PMC3493320

system: NCI-H295R; test: IC50 (antiproliferative, ATP content); conditions: 48 h
In short: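 Adrenocortical carcinoma cells (1500 per well) were seeded in serum-free ITS-supplemented DMEM in 1536-well plates and cultured overnight. Library compounds were then pin-transferred at 8 final concentrations from 0.6 nM to 46 µM, and plates were kept 48 h at 37 °C, 5% CO2. ATP was read as CellTiter-Glo luminescence after 20 min at room temperature and normalised to vehicle (0%) and positive control (100% inhibition). IC50 came from four-parameter logistic fits; compounds with no concentration response were recorded as above the top dose.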

Row | Structure (SMILES) | IC50
1 | CC1=C(C)C(=O)C(C(CCCCCC(=O)O)c2ccccc2)=C(C)C1=O (configuration not stated) | > 46 µM
2 | CCN1C[C@]2(COC)[C@H](O)C[C@H](OC)[C@@]34[C@@H]5C[C@@]6(O)[C@H](OC(=O)c7ccccc7)[C@@H]5[C@@](OC(C)=O)([C@@H]([C@H](OC)[C@H]23)[C@H]14)[C@@H](O)[C@@H]6OC | > 46 µM
3 | CCCCC(CC)COC(=O)c1ccc(N(C)C)cc1 (configuration not stated) | > 46 µM
4 | CCCCN1CCCC1C(=O)Nc1c(C)cc(C)cc1C (configuration not stated) | > 46 µM
5 | CCN1CCC[C@H]1CNC(=O)c1cc(S(N)(=O)=O)ccc1OC | > 46 µM
6 | O[C@@H]([C@H](O)[C@H](O)CBr)[C@H](O)CBr | > 46 µM
7 | O=c1ccc2ccccc2o1 | > 46 µM
8 | Nc1c(CC(=O)[O-])cccc1C(=O)c1ccc(Br)cc1.Nc1c(CC(=O)[O-])cccc1C(=O)c1ccc(Br)cc1.O.O.O.[Na+].[Na+] | > 46 µM
9 | CC/C=C\C/C=C\C/C=C\C/C=C\C/C=C\C/C=C/CCC(=O)O | > 46 µM
10 | CCc1nnc(NS(=O)(=O)c2ccc(N)cc2)s1 | > 46 µM
11 | Nc1nc2ccc(OC(F)(F)F)cc2s1 | > 46 µM
12 | CCOC(=O)C1=C(COCCN)NC(C)=C(C(=O)OC)C1c1ccccc1Cl.O=S(=O)(O)c1ccccc1 (configuration not stated) | > 46 µM
13 | CC(C)C(=O)Nc1ccc([N+](=O)[O-])c(C(F)(F)F)c1 | > 46 µM
14 | COC(=O)C(CN)c1c[nH]c2ccc(OC)cc12.Cl (configuration not stated) | > 46 µM
15 | Cl.O=C(O)c1cn(C2CC2)c2cc(N3CCNCC3)c(F)cc2c1=O | > 46 µM
16 | O=C(NC(Cc1cc(=O)[nH]c2ccccc12)C(=O)O)c1ccc(Cl)cc1 (configuration not stated) | > 46 µM
17 | CC[N+](C)(C)c1cccc(O)c1.[Cl-] | > 46 µM
18 | CCN(CC)C(=O)/C(C#N)=C/c1cc(O)c(O)c([N+](=O)[O-])c1 | > 46 µM
19 | O=[C@](OCC2=C(F)C(F)=CC(F)=C2F)[C@H]1C(C)(C)[C@@H]1/C=C(Cl)/Cl | > 46 µM
20 | O=C1CN(N=Cc2ccc(-c3ccc([N+](=O)[O-])cc3)o2)C(=O)[N-]1.[Na+] | > 46 µM
21 | COc1ccc2[nH]cc(CCNC(C)=O)c2c1 | > 46 µM
22 | O=c1cc(CO)occ1O | > 46 µM
23 | OC[C@@H](O)[C@H](O)[C@H](O)[C@@H](O)CO | > 46 µM
24 | CNCCc1ccccn1.CS(=O)(=O)O | > 46 µM
25 | CN1CC(=O)N2[C@H](c3ccc4c(c3)OCO4)c3[nH]c4ccccc4c3C[C@@H]2C1=O | > 46 µM

Row | Structure (SMILES) | IC50
26 | Br.CC(Cc1ccc(O)cc1)NCC(O)c1cc(O)cc(O)c1 (configuration not stated) | > 46 µM
27 | COc1ccc(C(CN(C)C)C2(O)CCCCC2)cc1 (configuration not stated) | > 46 µM
28 | CC(C)(C)NCC(O)CSc1nc(-c2ccc(C(N)=O)s2)cs1.Cl (configuration not stated) | > 46 µM
29 | Cl.O=c1n(CCCN2CCN(c3cccc(Cl)c3)CC2)nc2ccccn12 | > 46 µM
30 | CCCCC | > 46 µM
31 | CC(=C\c1ccccc1)/C=C1/SC(=S)N(CC(=O)O)C1=O | > 46 µM
32 | CN1C(=O)COc2c(C(=O)NC3CN4CCC3CC4)cc(Cl)cc21 (configuration not stated) | > 46 µM
33 | CC(C)Oc1ccc2c(=O)c(-c3ccccc3)coc2c1 | > 46 µM
34 | CN1CCN(c2cc3c(nn2)Oc2ccccc2N3C)CC1 | > 46 µM
35 | CCN(CC)CCC(=O)N1c2ccccc2Sc2ccc(Cl)cc21 | > 46 µM
36 | O=[C@@](N[C@@H]([C@@](O)=O)CC2=CC=CC=C2)[C@@H]1CC[C@@H]([C@H](C)C)CC1 | > 46 µM
37 | CN(C)C=Nc1c(I)cc(I)c(CCC(=O)[O-])c1I.[Na+] | > 46 µM
38 | C=C[C@@]1(C)CC(=O)[C@]2(O)[C@@]3(C)[C@@H](O)CCC(C)(C)[C@@H]3[C@H](O)[C@H](OC(C)=O)[C@@]2(C)O1 | > 46 µM
39 | CCC(=O)O[C@]1(C(=O)CCl)[C@@H](C)C[C@H]2[C@@H]3CCC4=CC(=O)C=C[C@]4(C)[C@@]3(F)[C@@H](O)C[C@@]21C | > 46 µM
40 | CCN(CC)CCNC(=O)C1C(C)=NC(/C=C2/C(=O)Nc3ccc(F)cc32)=C1C.O=C(O)CC(O)C(=O)O (configuration not stated) | > 46 µM
41 | CC(O)C(=O)O (configuration not stated) | > 46 µM
42 | Cc1cc(C(=O)NCCc2ccc(S(=O)(=O)NC(=O)NN3CCCCCC3)cc2)no1 | > 46 µM
43 | CCOC(=O)[C@@H](N)CS.Cl | > 46 µM
44 | O=C1c2c(O)cccc2[C@H]([C@@H]2O[C@H](CO)[C@@H](O)[C@H](O)[C@H]2O)c2cc(CO)cc(O)c21 | > 46 µM
45 | C/C=C/C[C@@H](C)[C@@H](O)[C@H]1C(=O)N[C@@H](CC)C(=O)N(C)CC(=O)N(C)[C@@H](CC(C)C)C(=O)N[C@@H](C(C)C)C(=O)N(C)[C@@H](CC(C)C)C(=O)N[C@@H](C)C(=O)N[C@H](C)C(=O)N(C)[C@@H](CC(C)C)C(=O)N(C)[C@@H](CC(C)C)C(=O)N(C)[C@@H](C(C)C)C(=O)N1C | > 46 µM
46 | CC(=O)CC(c1ccc([N+](=O)[O-])cc1)c1c(O)c2ccccc2oc1=O (configuration not stated) | > 46 µM
47 | CC(=O)NC(Cc1ccccc1)C(=O)O (configuration not stated) | > 46 µM
48 | C=CCN1CC[C@]23c4c5ccc(O)c4O[C@H]2[C@@H](O)C=C[C@H]3[C@H]1C5.Cl | > 46 µM
49 | O=C(Nc1ccc(C(=O)O)c(O)c1)c1ccccc1 | > 46 µM
50 | O=C1N([C@@H](CC8=CC=CC=C8)C(N3CCC[C@@]23[H])=O)[C@@]2(O)O[C@]([C@H](C)C)1N[C@]([C@@H]6C[C@]([C@]7([H])N(C)C6)([H])C5=C4C(C7)=CNC4=CC=C5)=O | > 46 µM

Row | Structure (SMILES) | IC50
51 | COc1ccc(CN(CCN(C)C)c2ccccn2)cc1 | > 46 µM
52 | CCN(CC)CCOc1ccc2c(c1)C(=O)c1cc(OCCN(CC)CC)ccc1-2 | > 46 µM
53 | CN(C)C(=N)NC(=N)N.Cl | > 46 µM
54 | CCC(=O)Nc1ccc(O)cc1 | > 46 µM
55 | CCCC(=O)O[C@]1(C(=O)CCl)[C@@H](C)C[C@H]2[C@@H]3CCC4=CC(=O)C=C[C@]4(C)[C@@]3(F)C(=O)C[C@@]21C | > 46 µM
56 | CNCCCCOc1ccccc1Cc1ccccc1 | > 46 µM
57 | Cl.NCCCC(N)(C(=O)O)C(F)F (configuration not stated) | > 46 µM
58 | O=c1oc2c(O)c(O)cc3c(=O)oc4c(O)c(O)cc1c4c23 | > 46 µM
59 | Cc1cc(-c2ccccc2)nnc1NCCN1CCOCC1.Cl.Cl | > 46 µM
60 | O=C1N2[C@@](SC(C)(C)[C@@H]2[C@@](O)=O)([H])[C@@]([H])1NC([C@H](NC([C@H](N)CC(NC)=O)=O)[C@@]3=CC=C(O)C=C3)=O | > 46 µM
61 | Cc1ccc(=O)n(-c2ccccc2)c1 | > 46 µM
62 | CN(C)CC/C=C1C(C=CC=C3)=C3C=CC2=C\1C=CC=C2.Cl | > 46 µM
63 | O=C1OC2(c3cc(Br)c([O-])cc3Oc3c2cc(Br)c([O-])[c]3[Hg][OH])c2ccccc21.[Na+].[Na+] (configuration not stated) | > 46 µM
64 | Cn1nnc2c(C(N)=O)ncn2c1=O | > 46 µM
65 | N[C@H](C)[C@@H](O)[C@]1=CC=CC=C1.Cl | > 46 µM
66 | CC(=O)OC[C@H]2O[C@@H](N1\N=C/C(=O)NC1=O)[C@H](OC(C)=O)[C@@H]2OC(C)=O | > 46 µM
67 | C[C@]12CC[C@@H]3c4ccc(O)cc4CC[C@H]3[C@@H]1C[C@@H](O)[C@H]2O | > 46 µM
68 | Cc1c[nH]c2ccccc12 | > 46 µM
69 | CCCN(CCc1cccs1)[C@H]1CCc2c(O)cccc2C1 | > 46 µM
70 | Cc1cc(C(C)(C)C)c(O)c(C)c1CC1=NCCN1 | > 46 µM
71 | C[C@@H]1C[C@H]2[C@@H]3CCC4=CC(=O)C=C[C@]4(C)[C@@]3(F)[C@@H](O)C[C@]2(C)[C@@]1(O)C(=O)COC(=O)c1cccc(S(=O)(=O)[O-])c1.[Na+] | > 46 µM
72 | Cl.c1ccc2c(c1)CCCC2C1=NCCN1 (configuration not stated) | > 46 µM
73 | COc1ccc(-c2noc(CC(=O)O)c2-c2ccc(OC)cc2)cc1 | > 46 µM
74 | CCn1cc(C(=O)O)c(=O)c2cc(F)c(N3CCNC(C)C3)c(F)c21.Cl (configuration not stated) | > 46 µM
75 | C[N+]1(CC2COC(c3ccccc3)(C3CCCCC3)O2)CCCCC1.[I-] (configuration not stated) | > 46 µM

Row | Structure (SMILES) | IC50
76 | OC[C@H]1O[C@@H](Oc2ccc(O)cc2)[C@H](O)[C@@H](O)[C@@H]1O | > 46 µM
77 | NS(=O)(=O)c1cc2c(cc1Cl)NC(CC1CCCC1)NS2(=O)=O (configuration not stated) | > 46 µM
78 | CC(C)COC(=O)OCN1C(=O)CN(CCN2CC(=O)N(COC(=O)OCC(C)C)C(=O)C2)CC1=O | > 46 µM
79 | O=C(CCN1CCN2CCCC2C1)N1c2ccccc2Sc2ccc(Cl)cc21 (configuration not stated) | > 46 µM
80 | NCCC(O)(P(=O)(O)O)P(=O)(O)O | > 46 µM
81 | CNCC(O)c1ccc(O)cc1 (configuration not stated) | > 46 µM
82 | CC(C)NCC(O)COc1cccc2[nH]ccc12 (configuration not stated) | > 46 µM
83 | C[N@@+]1([O-])[C@@H]2CC[C@H]1C[C@@H](OC(=O)C(CO)c1ccccc1)C2 (some centres not stated) | > 46 µM
84 | CN1CCCC(CC2c3ccccc3Sc3ccccc32)C1.Cl (configuration not stated) | > 46 µM
85 | CCCCC1C(=O)N(c2ccccc2)N(c2ccc(O)cc2)C1=O (configuration not stated) | > 46 µM
86 | O=C([C@H](CC1=CN=CN1)N[C@]([C@H](CC2)NC2=O)=O)N(CCC3)[C@@H]3[C@](N)=O | > 46 µM
87 | CN(C)CCOC(c1ccccc1)c1ccccc1 | > 46 µM
88 | CC(C)CC(=O)N[C@H](C(=O)N[C@H](C(=O)N[C@@H](CC(C)C)[C@@H](O)CC(=O)N[C@@H](C)C(=O)N[C@@H](CC(C)C)[C@@H](O)CC(=O)O)C(C)C)C(C)C | > 46 µM
89 | [S]=[Sb](=[S])[S][Sb](=[S])=[S] | > 46 µM
90 | N21/C(=C(/SCCNC=N)C[C@@H]1[C@H](C2=O)[C@H](O)C)C(=O)O | > 46 µM
91 | O=C(O)c1ccccc1-c1ccc(C(F)(F)F)cc1 | > 46 µM
92 | Oc1ccc2c3c1O[C@H]1[C@@H](O)CC[C@@]4(O)[C@@H](C2)N(CC2CCC2)CC[C@]314 | > 46 µM
93 | CCOC(C)OCC | > 46 µM
94 | Cc1cc2c(s1)Nc1ccccc1N=C2N1CCN(C)CC1 | > 46 µM
95 | Cc1nc(C)c(Cl)c(O)c1Cl | > 46 µM
96 | COc1ccccc1OCC(O)CO (configuration not stated) | > 46 µM
97 | CCC(Cc1c(I)cc(I)c(O)c1I)C(=O)O (configuration not stated) | > 46 µM
